Test results taken from patent US5686417A, “Peptide T and related peptides in the treatment of HTLV-1 myelopathy and multiple sclerosis” (Reed MacFadden, Ltd., priority 1995, dated 1997).

Legend:
[1] = test system: multiple sclerosis patients; assay: case treatments of multiple sclerosis (Examples 2-5); type: in vivo, human
Procedure: A person was diagnosed as having MS after presenting with weakness, loss of balance, double vision, and paraesthesia in their right arm. They were treated with prednisone and later with physiotherapy. […] Tone was increased in both lower limbs and they had bilateral ankle clonus. Deep tendon reflexes were 2+ in the arms, 3+ in both knees and ankles and the planter responses were extensor.
They were started on 10 milligram subcutaneous injections of Peptide T daily. […] Their frequency of nocturia was reduced, fine motor control improved, stuttering decreased, their legs were less spastic and they could stand with minimal support.
A person was diagnosed with optic neuritis secondary to multiple sclerosis after presenting with numbness, impaired motor function, and blurred vision (20/300 bilaterally). Their somatic neurological examination was within normal limits. Minor episodes of numbness and impaired speech, balance and co-ordination had occurred over 6 months, as well as headache and loss of vision.
Peptide T therapy was started.
A person with their first multiple sclerosis episode had optic neuritis and complete blindness in the right eye for 2 weeks, numbness in their right leg and then both legs. Their symptoms worsened. […] They had worsening of their ataxia and blurred vision. They were given prednisone 80 milligrams per day. […] The patient complained of oscillopsia. […] Findings were typical of demyelination consistent with MS. […] The tone was increased in their lower limbs and they had non-sustained ankle clonus bilaterally. Their knee jerk was increased on the right compared to the left. Plantar responses were both upgoing. They had decreased position, vibration, light touch and cold sensation in the feet compared to the hands.
About 2 months later the patient was started on Peptide T 10 milligrams subcutaneously daily. […] They experienced improved feelings in their fingers, fine movements of their hands and improved cognitive function.
A person with a history of dizziness, ataxia, episodes of vertigo, impairment of motor function and generalized weakness of the legs was treated with dilantin and admitted to hospital. […] They were reassessed about 2 years later for episodes of dizziness, and complaints of leg spasms. […] Planter response was downgoing and they had upwards gaze vertical nystagmus as previously noted.

[2] = in vivo; cited from earlier work
rat spinal cord = settings: spinal administration; cited from earlier work
protein kinase C = settings: cited from earlier work
[3] = test system: mouse fetal hippocampal neurons; settings: mouse hippocampal neuronal culture; cited from earlier work

NCC(CC(=O)O)c1ccc(Cl)cc1 (centres unmarked) [Lioresal (Baclofen), Baclofen]
response to earlier treatment ([1]; Example 2, before Peptide T): some improvement

C[C@@H](N)C(=O)N[C@@H](CO)C(=O)N[C@H](C(=O)N[C@H](C(=O)N[C@H](C(=O)N[C@@H](CC(N)=O)C(=O)N[C@@H](Cc1ccc(O)cc1)C(=O)N[C@H](C(N)=O)[C@@H](C)O)[C@@H](C)O)[C@@H](C)O)[C@@H](C)O [Peptide T, D-Ala-Ser-Thr-Thr-Thr-Asn-Tyr-Thr- Amide]
exit from the brain [2]: diffusion only

C[C@]12C=CC(=O)C=C1CC[C@@H]1[C@@H]2C(=O)C[C@@]2(C)[C@H]1CC[C@]2(O)C(=O)CO [prednisone]
symptomatic response ([1]; Example 4, 150 mg daily, while off Peptide T): minimal symptomatic improvement | ataxia and some visual problems ([1]; Example 4, 80 milligrams per day): seemed to improve | response to treatment ([1]; Example 4, first course, dose not stated): some improvement

vasoactive intestinal peptide [VIP]
analgesia, fail-flick latency test and tail-shock induced vocalization test (rat spinal cord): produced analgesia | cellular effects via protein kinase C (protein kinase C): regulation of protein kinase C | effect on gp120-induced neurotoxicity [3]: completely eliminated
